# Assay results as given in patent US20170224731A1, “METHOD OF PRODUCING LEUKOCYTES USING PTPN2 INHIBITION FOR ADOPTIVE CELL TRANSFER” (MONASH UNIVERSITY, priority 2014, published 2017).
# How the values were obtained:
# [1] = test system: CD8+ human blood lymphocytes; assay: Human PBMC stimulation with plate-bound α-CD3, CD8+ T cell proliferation by flow cytometry with Calibrite Beads (FIG. 19); type: cell-based; details: human PBMCs, plate-bound α-CD3 for 48 h and 72 h, versus vehicle control
# Experimental: FIG. 19. […] Freshly isolated human PBMCs (2×10^6) were stimulated with plate-bound α-CD3 for (A) 48 h and (B) 72 h, in the presence of vehicle control or the PTPN2 inhibitor, compound 8 (as described herein). PBMCs were harvested and stained with fluorochrome-conjugated α-CD8. Calibrite Beads™ were added and T cell proliferation was monitored by flow cytometry. Results shown are means±SD for the indicated number of replicates.
# (§1) Human blood was collected in 15 ml glass tubes containing Ficoll® gradient (GE Healthcare Life Sciences, Amersham, UK). Peripheral blood […] (PBMCs) were recovered by centrifugation (2200×rpm, 20 min at room temperature). PBMCs were incubated with PTPN2 inhibitor (compound 8) in serum-free RPMI 1640 for two hours at 37° C. and stimulated with plate-bound human α-CD3 (5 μg/ml; clone OKT-3) for 24 h. Cells were harvested and stained with fluorochrome-conjugated antibodies against α-CD8, α-CD45RA, α-CD154 and α-CD69 and analysed by flow cytometry to determine their activation status. To monitor T cells proliferation Calibrite Beads™ were added to the wells before cells were harvested.
# Freshly isolated human PBMCs (2×10^6) were stimulated with plate-bound α-CD3 for (A) 48 h and (B) 72 h, in the presence of vehicle control or the PTPN2 inhibitor, compound 8 (as described herein). […] Calibrite Beads™ were added and T cell proliferation was monitored by flow cytometry. […]
# [2] = test system: Her-2 specific CAR T cells; assay: Her-2-specific CAR T cells incubated with 24JK-Her-2 sarcoma cells, secreted IFNγ by ELISA (FIG. 20); type: cell-based, mouse; details: with 24JK-Her-2, 24JK or medium alone, versus vehicle control
# Experimental: FIG. 20. […] Her-2-specific CAR T cells were incubated with Her-2 expressing 24JK sarcoma cells (24JK-Her-2) or 24JK sarcoma cells (24JK) or medium alone, in the presence of vehicle control or the PTPN2 inhibitor, compound 8 (described herein). T cell activation was assessed by monitoring for secreted IFNγ by ELISA (Mouse IFNγELISA Set, BD OptEIA™) according to the supplier's specifications. Tests were performed in triplicates (±SD).
# Her-2-specific CAR T cells were incubated with Her-2 expressing 24JK sarcoma cells (24JK-Her-2) or 24JK sarcoma cells (24JK) or medium alone, in the presence of vehicle control or the PTPN2 inhibitor, compound 8 (described herein). T cell activation was assessed by monitoring for secreted IFNγ by ELISA (Mouse IFNγELISA Set, BD OptEIA™) according to the supplier's specifications. Tests were performed in triplicates (±SD).
# [3] = test system: Naive (CD62LhiCD44lo) CD8+ LN T cells; assay: Stimulation of naive CD8+ LN T cells with anti-CD3/anti-CD28 ± PTPN2 inhibitor, MFI by flow cytometry (FIG. 14); type: cell-based, C57BL/6 mice; details: anti-CD3 (5 μg/ml) and anti-CD28 (5 μg/ml) for 60 h, inhibitor at various concentrations
# Experimental: FIG. 14. […] Naive (CD62LhiCD44lo) CD8+ LN T cells (1×105) from C57BL/6 mice were stimulated with plate-bound anti-CD3 (5μg/ml) and anti-CD28 (5μg/m1) for 60 h±PTPN2 inhibitor at various concentrations. Cells were harvested and stained with fluorochrome-conjugated antibodies for CD44, CD69, CD25 and CD62L and mean fluorescence intensity (MFI) analyzed by flow cytometry. Results shown are means±SD for the indicated number of replicates.
# CD8^+CD62L^hiCD44^lo naïve LN T cells (1×10^5/well) were stimulated in 96-well round-bottom plates with plate-bound α-CD3 (5 μg/ml) and a-CD28 (5 μg/ml) for 60 h. PTPN2 inhibitor was added twice daily to the culture. To determine the activation status cells were harvested, stained with fluorochrome-conjugated antibodies against α-CD25, α-CD44, α-CD62L and α-CD69 and analysed by flow cytometry.
# In FIG. 14, the results of naive)(CD62L^hiCD44^loCD8+ LN T cells (1×105) from C57BL/6 mice that were stimulated with plate-bound anti-CD3 (5 μg/ml) and anti-CD28 (5 μg/ml) for 60 h±PTPN2 inhibitor (compound 8) at various concentrations is shown. Cells were harvested and stained with fluorochrome-conjugated antibodies for CD44, CD69, CD25 and CD62L and mean fluorescence intensity (MFI) analyzed by flow cytometry. Results shown are means±SD for the indicated number of replicates.
# [4] = test system: CD8+ naïve (CD62LhiCD44lo) splenic T cells; assay: Activation of naive CD8+ splenic T cells with plate-bound αCD3/CD28, surface markers by flow cytometry (FIG. 11); type: cell-based, C57BL/6 mice; details: plate-bound αCD3/CD28 for 48 h, versus vehicle
# Excerpt: FIG. 11. […] T cells were stained with fluorochrome-conjugated antibodies to assess CD44, CD62L, IL-2Ra (CD25 subunit) and CD69 surface levels and mean fluorescence intensity (MFI) was monitored by flow cytometry.
# T cells were stained with fluorochrome-conjugated antibodies to assess CD44, CD62L, IL-2Rα (CD25 subunit) and CD69 surface levels and mean fluorescence intensity (MFI) was monitored by flow cytometry.
# [5] = test system: CD8+ human blood lymphocytes; assay: Human PBMC stimulation with plate-bound α-CD3, T cell activation (CD69, CD154) by flow cytometry (FIG. 16); type: cell-based; details: human PBMCs, plate-bound α-CD3 (1.25 and 2.5 μg/ml) for 24 h
# Experimental: FIG. 16. […] Freshly isolated human PBMCs (2×10^6) were stimulated with plate-bound α-CD3 (1.25 and 2.5 μg/ml) for 24 h. PBMCs were harvested and stained with fluorochrome-conjugated antibodies for CD45RA, CD8, CD69 and CD154 and T cell activation was monitored by flow cytometry. Representative CD8 versus CD69 and CD154 plots (numbers in outlined areas are the relative numbers in the gate) are shown.
# as §1
# Freshly isolated human PBMCs (2×10^6) were stimulated with plate-bound α-CD3 (1.25 and 2.5 μg/ml) for 24 h. PBMCs were harvested and stained with fluorochrome-conjugated antibodies for CD45RA, CD8, CD69 and CD154 and T cell activation was monitored by flow cytometry. […]
# murine CD8+ T cells = assay: PTPN2 siRNA knock down in splenocytes, CD8+ T cell numbers after α-CD3/α-CD28 stimulation (FIG. 17); type: cell-based, C57BL/6 mice; details: 30 nM, 100 nM and 300 nM siRNA, α-CD3/α-CD28 (5 μg/ml each) for 48 h, versus GFP siRNA
# Experimental: FIG. 17. Knock down of PTPN2 using siRNAs in murine CD8+ T cells leads to enhanced TCR-mediated T cell responses. Splenocytes (1×10^7) from C57BL/6 mice were transfected overnight with 100 nM GFP siRNA or 30 nM, 100 nM and 300 nM PTPN2 siRNA or 30 nM BLOCK-iT™ Fluorescent Oligo using the Amaxa Mouse T cell Nucleofactor Kit. (A) Transfection efficiency of CD8^+ T cells was monitored with BLOCK-iT™ Fluorescent Oligo (Fluor.Oligo) by flow cytometry. (B) Transfected splenocytes were stimulated with plate-bound α-CD3 (5 μg/ml) and α-CD28 (5 μg/ml) for 48 h and stained with fluorochrome-conjugated α-CD8. CD8^+ T cell numbers were quantified with Calibrite Beads™ by flow cytometry. Results shown are means±SD for the indicated number of replicates.
# Ptpn2 was knocked down transiently in primary murine T cells using Ptpn2 ([…], SEQ ID NO: 14); Dharmacon Thermo Scientific, Waltham, Mass.); green fluorescent protein (GFP; CAAGCUGACCCUGAAGUUCdTdT; Dharmacon Thermo Scientific, Waltham, Mass.) siRNA was used as a control. […] T cell numbers were monitored by flow cytometry. For quantification Calibrite Beads (BD Biosciences) were added to the wells before cells were harvested.
# Splenocytes (1×10^7) from C57BL/6 mice were transfected overnight with 100 nM GFP siRNA or 30 nM, 100 nM and 300 nM PTPN2 siRNA using the Amaxa Mouse T cell Nucleofactor Kit. […] CD8+ T cell numbers were quantified by flow cytometry. […]
Compound,TCR-mediated T cell proliferation [1],tumour-specific activation of Her-2 specific CAR T cells (secreted IFNγ) [2],"activated phenotype of naive CD8+ T cells (CD44, CD69, CD25, CD62L MFI) [3]","polyclonal CD8+ T cell activation (CD44, CD62L, CD25, CD69 surface levels, MFI) [4]","TCR-mediated T cell activation (CD69, CD154) [5]",TCR-mediated T cell responses (CD8+ T cell number) (murine CD8+ T cells)
CCc1ccc(C(=O)NCCCCC(NC(=O)C(Cc2ccc(C(F)(F)P(=O)(O)O)cc2)NC(=O)C(Cc2ccccc2)NC(=O)COC2CC(C)CCC2C(C)C)C(N)=O)cc1 (stereo not drawn) [compound 8],enhanced TCR-mediated T cell proliferation,enhances the tumour-specific activation of Her-2 specific CAR T cells ex vivo,stimulates naive CD8+ T cells to an activated phenotype,enhances polyclonal CD8^+ T cell activation ex vivo,enhanced TCR-mediated T cell activation,–
"AAGCCCAUAUGAUCACAGUCG (listed as RNA, chemistry not given here) [PTPN2 siRNA, siRNA used to knock down Ptpn2 transiently in primary murine T cells (Dharmacon)]",–,–,–,–,–,dose response increase in cell number
